Key:
RAW 264.7 cells [1] = test: In vitro expression of firefly-luciferase, RAW 264.7; type: cell-based; settings: cirRNA (SEQ ID NO: 1) LNPs; firefly-luciferase luminescence; RAW 264.7 cells
Summary of the method: (§1)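 Cells were transfected with firefly-luciferase-encoding RNA-LNPs at 100 ng/mL. After 72 hours they were washed and lysed, and luciferase activity in the lysates was read by luminometry.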

[2] = LNP zeta potential (Zetasizer); type: physicochemical; settings: LNP with cirRNA (SEQ ID NO: 1)
Summary of the method: (§2)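 LNPs of ionizable lipid/DSPC/cholesterol/DMG-PEG 2000 (50:10:38.5:1.5) made by microfluidic mixing of luciferase circRNA or mRNA in pH 4.5 acetate with lipids in ethanol (3:1, 12 ml/min), ionizable lipid:nucleotide 15 or 6, then dialyzed against PBS. Size, PDI (DLS) and zeta potential on Zetasizer; encapsulation by Ribogreen ± Triton X-100.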

Hep G2 cells [3] = test: In vitro toxicity (CellTiter-Glo cell viability), Hep G2; type: cell-based; settings: cirRNA (SEQ ID NO: 1) LNPs; Hep G2 cells;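 further: percent of untreated cells luminescence signal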
Summary of the method: (§3)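 Cells were transfected with RNA-LNPs at 1 μg/mL and, 72 hours later, viability was measured by CellTiter-Glo luminescence. Values are cell viability calculated from the luminescence signal.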

[4] = RNA encapsulation efficacy by Quant-IT Ribogreen kit; type: physicochemical; settings: LNP with cirRNA (SEQ ID NO: 1)
Summary of the method: as §2

RAW 264.7 cells [5] = test: In vitro toxicity (CellTiter-Glo cell viability), RAW 264.7; type: cell-based; settings: cirRNA (SEQ ID NO: 1) LNPs; RAW 264.7 cells;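 further: percent of untreated cells luminescence signal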
Summary of the method: as §3

Hep G2 cells [6] = test: In vitro expression of firefly-luciferase, Hep G2; type: cell-based; settings: cirRNA (SEQ ID NO: 1) LNPs; firefly-luciferase luminescence; Hep G2 cells
Summary of the method: as §1

[7] = LNP size and polydispersity index (PDI) by dynamic light scattering; type: physicochemical; settings: LNP with cirRNA (SEQ ID NO: 1); for Size: in nm (unit assumed)
Summary of the method: as §2

BALB/C mice = test: In vivo expression, whole-body luminescence (IVIS); settings: cirRNA (SEQ ID NO: 1) LNPs, BALB/C mice
Protocol: 6-8 week old, female BALB/C mice were injected with 0.05 mg*kg-1 of RNA-LNPs encoding for firefly-luciferase by intravenous injection. At 6 hours post injection, animals were intraperitoneally injected with 15 mg/ml of Luciferin substrate and whole-body luminescence was determined by a bioluminescent in vivo imaging system (IVIS).

Zeta (mV) [2]	Encapsulation Efficiency % [4]	PDI [7]	Size [7]	SMILES	In vitro Expression RAW (RAW 264.7 cells [1])	In vitro Viability HepG2 (Hep G2 cells [3])	In vitro Viability RAW (RAW 264.7 cells [5])	In vitro Expression HepG2 (Hep G2 cells [6])	In vivo Expression (Whole Body) (BALB/C mice)
−4.35 mV	89%	0.0911	57.29	CCCCCCCCCCC(CCCCCCCC)COC(=O)CCCCCN(CCCCCC(=O)OCC(CCCCCCCC)CCCCCCCCCC)CCOC(=O)NCCN1CCOCC1 (stereo not drawn) [Lipid 174]	1.30E+04	89%	92%	1.56E+05	5.15E+07
8.983 mV	92%	0.277	65.71	CCCCC/C=C\CCOC(=O)CCCCCN(CCCCCCCCOC(=O)C(CCCCCC)CCCCCCCC)CCOC(=O)NCCN1CCN(C)CC1 (stereo not drawn) [Lipid 187]	7.47E+04	93%	0%	3.27E+05	2.29E+06
−9.419 mV	88%	0.07877	73.74	CCCCC/C=C\CCOC(=O)CCCCCN(CCCCCCCCOC(=O)C(CCCCCC)CCCCCCCC)CCOC(=O)NCCN1CCOCC1 (stereo not drawn) [Lipid 188]	2.82E+03	96%	87%	1.12E+04	2.17E+07
−7.77 mV	92%	0.1344	76.52	CCCCC/C=C\CCOC(=O)CCCCCN(CCCCCCCCOC(=O)C(CCCCCC)CCCCCCCC)CCOC(=O)NCCN1CCCCC1 (stereo not drawn) [Lipid 192]	8.42E+03	94%	86%	4.18E+04	8.52E+07
16.36 mV	93%	0.1932	60.75	CCCCCCCCCC(=O)OCCCCCCCCN(CCCCCCCCOC(=O)CCCCCCCCC)CCOC(=O)NCCN(C)C [Lipid 202]	3.35E+02	94%	92%	2.49E+05	2.33E+05
−3.175 mV	93%	0.1853	65.77	CCCCCCCC/C=C\CCCCCCCCN(CCCCCCCCOC(=O)C(CCCCCC)CCCCCCCC)CCOC(=O)NCc1ncc[nH]1 (stereo not drawn) [Lipid 212]	1.44E+05	99%	82%	6.37E+04	4.68E+06

The remaining lines, values behind:

SMILES	Zeta (mV) [2]	Encapsulation Efficiency % [4]	PDI [7]	Size [7]	In vitro Expression RAW (RAW 264.7 cells [1])	In vitro Viability HepG2 (Hep G2 cells [3])	In vitro Viability RAW (RAW 264.7 cells [5])	In vitro Expression HepG2 (Hep G2 cells [6])	In vivo Expression (Whole Body) (BALB/C mice)
CCCCCCCCCC(=O)OCCCCCCCN(CCCCCCCOC(=O)CCCCCCCCC)CCOC(=O)NCCN1CCN(C)CC1 [Lipid 178]	16.19 mV	95%	0.1534	61.85	1.31E+03	99%	92%	6.17E+04	1.31E+06
CCCCC/C=C\CCOC(=O)CCCCCN(CCCCCCCCOC(=O)C(CCCCCC)CCCCCCCC)CCOC(=O)NCc1ncc[nH]1 (stereo not drawn) [Lipid 185]	−1.137 mV	88%	0.102	69.89	5.29E+04	90%	85%	9.12E+03	1.22E+08
CCCCC/C=C\CCOC(=O)CCCCCN(CCCCCCCCOC(=O)C(CCCCCC)CCCCCCCC)CCOC(=O)NCCCN(CC)CC (stereo not drawn) [Lipid 186]	14.31 mV	90%	0.4618	122.7	2.82E+02	88%	0%	1.51E+05	2.96E+06
CCCCC/C=C\CCOC(=O)CCCCCN(CCCCCCCCOC(=O)C(CCCCCC)CCCCCCCC)CCOC(=O)NCCN(C)C (stereo not drawn) [Lipid 189]	18.88 mV	95%	0.4058	84.04	2.71E+02	89%	1%	9.85E+04	1.79E+06
CCCCC/C=C\CCOC(=O)CCCCCN(CCCCCCCCOC(=O)C(CCCCCC)CCCCCCCC)CCOC(=O)NCCN1CCCC1 (stereo not drawn) [Lipid 191]	12.32 mV	91%	0.2327	79.79	1.22E+03	92%	4%	4.43E+04	1.02E+07
CCCCCCCCCC(=O)OCCCCCCCN(CCCCCCCCOC(=O)C(CCCCCC)CCCCCCCC)CCOC(=O)NCCCN(C)C (stereo not drawn) [Lipid 193]	15.29 mV	94%	0.3634	66.71	1.70E+03	94%	3%	5.28E+05	1.00E+06
CCCCCCCCCC(=O)OCCCCCCCN(CCCCCCCCOC(=O)C(CCCCCC)CCCCCCCC)CCOC(=O)NCc1ncc[nH]1 (stereo not drawn) [Lipid 198]	−3.471 mV	94%	0.2199	64.1	8.39E+04	104%	90%	2.19E+04	9.90E+06
CCCCCCCCCC(=O)OCCCCCCCN(CCCCCCCCOC(=O)C(CCCCCC)CCCCCCCC)CCOC(=O)NCCCN(CC)CC (stereo not drawn) [Lipid 199]	13.62 mV	94%	0.436	97.91	1.29E+03	87%	0%	3.74E+05	3.44E+05
CCCCCCCCCC(=O)OCCCCCCCN(CCCCCCCCOC(=O)C(CCCCCC)CCCCCCCC)CCOC(=O)NCCN1CCN(C)CC1 (stereo not drawn) [Lipid 200]	7.27 mV	95%	0.2967	82.06	4.45E+04	103%	0%	4.46E+05	6.79E+05
CCCCCCCCCC(=O)OCCCCCCCCN(CCCCCCCCOC(=O)CCCCCCCCC)CCOC(=O)NCc1ncc[nH]1 [Lipid 203]	−0.09389 mV	73%	0.08783	98.65	7.82E+04	103%	91%	1.12E+04	6.84E+06
CCCCCCCCCC(=O)OCCCCCCCCN(CCCCCCCCOC(=O)CCCCCCCCC)CCOC(=O)NCCN1CCN(C)CC1 [Lipid 205]	18.81 mV	94%	0.1521	61.16	7.09E+03	94%	95%	5.81E+05	6.61E+05
CCCCCCCCCC(=O)OCCCCCCCCN(CCCCCCCCOC(=O)CCCCCCCCC)CCOC(=O)NCCN1CCCC1 [Lipid 209]	13.53 mV	93%	0.1886	86.68	1.08E+02	96%	95%	3.81E+04	6.62E+05
CCCCCCCC/C=C\CCCCCCCCN(CCCCCCCCOC(=O)C(CCCCCC)CCCCCCCC)CCOC(=O)NCCN(C)C (stereo not drawn) [Lipid 211]	7.113 mV	94%	0.2243	97.77	2.36E+05	90%	91%	1.14E+07	1.09E+07

— patent US12691070B2, “Cationic lipids and preparation method thereof” (RiboX Therapeutics HK Limited, priority 2023, dated 2026)
